One compound from ChEMBL document CHEMBL1158311, “Fusaricide, a new cytotoxic N-hydroxypyridone from Fusarium sp” (J Nat Prod, 1996) can be followed below.

Experiment [1] is described as follows: Inhibition of HIV1 recombinant Rev protein expressed in Escherichia coli binding to HIV1 Rre RNA by liquid scintillation assay. Further details: species or system Human immunodeficiency virus 1.
Experiment [2] in a line: Inhibition of R17 coat protein binding to [33P]labeled R17 operator RNA.
A short description of experiment [3]: Ratio of IC50 for R17 activity to IC50 for HIV1 Rev activity.
For experiment [4], the system named is Candida albicans. Nature of the experiment: Antifungal activity against Candida albicans. Format: functional.
The subject of experiment [5] is Penicillium chrysogenum. The experiment can be described thus: Antifungal activity against Penicillium chrysogenum. Format: functional.
In experiment [6] the test system is M109. Nature of the experiment: Antitumor activity against mouse M109 cells. The class given is functional.

SMILES strings stand for the structures. In brackets after ≈: the same amount, converted by molar mass. Some results are limits rather than exact numbers.

What is called IC50 is the concentration at which inhibition is half-maximal. One may read the MIC as the smallest concentration in the dilution series that meets the test's criterion for growth inhibition. `CC[C@@H]1Oc2ccn(O)c(=O)c2[C@H]2[C@H](C)C[C@H](C)C[C@]12C` [FUSARICIDE]: the 50% inhibitory concentration (IC50) in experiment [1] is 40 µg/mL; in experiment [2], 75 µg/mL (≈ 257 µM). Further, the Ratio IC50 in experiment [3] was less than 2. The minimal inhibitory concentration (MIC) in experiment [4] amounted to 16 µg/mL (≈ 54.9 µM); in experiment [5], 8 µg/mL (≈ 27.5 µM). In experiment [6], this compound returned an Activity of 1 µg/mL.
